Data: US7262223B2, “Amidine derivatives for treating amyloidosis” (Neurochem (International) Limited, priority 2004, dated 2007)

Target: T1, solubilized Aβ40 (Homo sapiens, UniProt P05067)
T1 construct: 20 μM of solubilized Aβ40
Test: Mass spectroscopy (MS) assay of binding to soluble Aβ40
Design: key: “+” = active; “−” = inactive
Conditions: 200 μM test compound, 20 μM solubilized Aβ40, 20% ethanol, pH 7.4, electrospray ionization MS
Procedure: Test compounds were purchased from commercial sources or synthesized and screened by mass spectroscopy (“MS”) assay, which gives data on the ability of compounds to bind to an amyloid protein. Samples were prepared as aqueous solutions containing 20% ethanol, 200 μM of a test compound and 20 μM of solubilized Aβ40. The pH value of each sample was adjusted to 7.4 (±0.2) by addition of 0.1% aqueous sodium hydroxide. The solutions were then analyzed by electrospray ionization mass spectroscopy using a Waters ZQ 4000 mass spectrometer. Samples were introduced by direct infusion at a flow-rate of 25 μL/min within 2 hr. after sample preparation. The source temperature was kept at 70° C. and the cone voltage was 20 V for all the analysis. Data were processed using Masslynx 3.5 software. The MS assay gives data on the ability of compounds to bind to Aβ, whereas the ThT, EM and CD assays give data on inhibition of fibrillogenesis.

T1 sequence (P05067 672-711 limits assumed): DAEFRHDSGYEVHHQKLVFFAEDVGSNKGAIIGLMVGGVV

Row | SMILES | MS Assay
1 | N=C(NCCCCCCCN)c1ccc(Br)cc1 [Compound 145] | +
2 | N=C(NCCCCCCCNC(=O)c1ccc(Br)cc1)c1ccc(Br)cc1 [Compound 146] | +
3 | CCOC(=O)c1ccc(C(=O)NCCCCCCCNC(=O)c2ccc(C(=N)N)cc2)cc1 [Compound 148] | +
4 | CCOC(=O)c1ccc(C(=O)NCCCCCCCCCNC(=O)c2ccc(C(=N)N)cc2)cc1 [Compound 149] | +
5 | N=C(NCCCCCCCCCNC(=N)c1ccc(Br)cc1)c1ccc(Br)cc1 [Compound 151] | +
6 | N=C(N)c1ccc(C(=O)NCCN(CCNC(=O)c2ccc(C(=N)N)cc2)C(=O)c2ccc(C(=N)N)cc2)cc1 [Compound 155] | −
7 | N=C(N)c1ccc(S(=O)(=O)NCCCCCCCCCNS(=O)(=O)c2ccc(C(=N)N)cc2)cc1 [Compound 158] | −

Results, then the molecule that gave them:

Row | MS Assay | SMILES
8 | − | N/C(=N\O)c1ccc(OCCCCCCCCCNO)cc1 [Compound 147]
9 | + | N=C(NCCCCCNC(=N)c1ccc(Br)cc1)c1ccc(Br)cc1 [Compound 150]
10 | − | COc1ccc(C(=N)NCCCCCCCCCNC(=N)c2ccc(OC)cc2)cc1 [Compound 152]
11 | + | COc1ccc(C(=N)NCCN2CCN=C2c2ccc(OC)cc2)cc1 [Compound 153]
12 | + | COc1ccc(C(=N)NCCCCCNC(=N)c2ccc(OC)cc2)cc1 [Compound 154]
13 | − | Nc1ccc(OCCCCCOc2ccc(NC3=NCCN3)cc2)cc1 [Compound 156]
